Test results: EP1115693B9, “SUBSTITUTED POLYCYCLIC ARYL AND HETEROARYL $i([sequence])-HETEROALKYLAMINES USEFUL FOR INHIBITING CHOLESTERYL ESTER [sequence] PROTEIN ACTIVITY” (Monsanto Company, priority 1998, dated 2000)

biological target: T1, CETP (Homo sapiens, UniProt P11597); test: Assay of CETP inhibition using purified components (reconstituted buffer assay): transfer of [3H]CE from HDL to LDL; assay type: biochemical; parameters: made in house; host or cells: CHO cells (serum-free conditioned medium); conditions: 2 hours at 37°C
T1 sequence (P11597 18-493): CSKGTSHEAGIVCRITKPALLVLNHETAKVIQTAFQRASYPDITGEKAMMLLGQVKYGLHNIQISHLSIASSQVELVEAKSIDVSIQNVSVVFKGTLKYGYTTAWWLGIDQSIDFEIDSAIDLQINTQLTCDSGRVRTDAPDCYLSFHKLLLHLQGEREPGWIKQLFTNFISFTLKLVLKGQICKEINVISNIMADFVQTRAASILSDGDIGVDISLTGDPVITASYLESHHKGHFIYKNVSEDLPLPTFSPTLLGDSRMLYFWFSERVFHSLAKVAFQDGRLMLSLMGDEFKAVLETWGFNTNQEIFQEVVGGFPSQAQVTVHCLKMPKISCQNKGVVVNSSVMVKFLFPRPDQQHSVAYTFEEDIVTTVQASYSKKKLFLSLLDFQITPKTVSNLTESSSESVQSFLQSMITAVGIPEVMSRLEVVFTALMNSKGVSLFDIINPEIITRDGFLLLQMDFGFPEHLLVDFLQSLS
Description: ASSAY OF CETP INHIBITION USING PURIFIED COMPONENTS (RECONSTITUTED BUFFER ASSAY)
The ability of compounds to inhibit CETP activity was assessed using an in vitro assay that measured the rate of transfer of radiolabeled cholesteryl ester ([^3H]CE) from HDL donor particles to LDL acceptor particles. Details of the assay are provided by Glenn, K. C. et al. (Glenn and Melton, "Quantification of Cholesteryl Ester Transfer Protein (CETP): A) CETP Activity and B) Immunochemical Assay of CETP Protein," Meth. Enzymol., 263, 339-351 (1996)). Human recombinant CETP can be obtained from the serum-free conditioned medium of CHO cells transfected with a cDNA for CETP and purified as described by Wang, S. et al. (J. Biol. Chem. 267, 17487-17490 (1992)). To measure CETP activity, [^3H]CE-labeled-HDL, LDL, CETP and assay buffer (50 mM tris(hydroxymethyl)aminomethane, pH 7.4; 150 mM sodium chloride; 2 mM ethylenediamine-tetraacetic acid (EDTA); 1% bovine serum albumin) were incubated in a final volume of 200 µL, for 2 hours at 37°C in 96 well plates. […] The inhibitors were then diluted 1:1 with CETP in assay buffer, and then 25 µL of that solution was mixed with 175 µL of lipoprotein pool for assay. Following incubation, LDL was differentially precipitated by the addition of 50 µL of 1% (w/v) dextran sulfate/0.5 M magnesium chloride, mixed by vortex, and incubated at room temperature for 10 minutes. A potion of the solution (200 µL) was transferred to a filter plate (Millipore). After filtration, the radioactivity present in the precipitated LDL was measured by liquid scintillation counting.
This value was defined as the IC50.

For `Fc1ccc(Oc2cccc(NCc3cccc(OC(F)(F)C(F)F)c3)c2)cc1` [634C], which IC50 is on record?
Its IC50 is over 100 µM.

`O=C(O)c1ccc(COc2cccc(N(Cc3cccc(OC(F)(F)C(F)F)c3)CC(O)C(F)(F)F)c2)cc1` (centres unmarked) [EX-435B, 4-[[3-[[[3-(1,1,2,2-tetrafluoroethoxy)phenyl]methyl](3,3,3-trifluoro-2-hydroxypropyl)amino]phenoxy]methyl]benzoic acid] was tested. Which IC50 did it give?
Its IC50 is over 50 µM.

`COc1cccc(N(Cc2cccc(C)c2)CC(O)C(F)(F)F)c1` (centres unmarked) [Example 3] was tested. Which IC50 did it give?
The IC50 was 60 µM.

How did the IC50 turn out when `OCc1cccc(CN(CC(O)C(F)(F)F)c2cccc(Oc3ccccc3)c2)c1` (centres unmarked) [Example 618, 3-[[(3-phenoxyphenyl)(3,3,3-trifluoro-2-hydroxypropyl)amino]methyl]benzenemethanol] was run?
Its IC50 is 100 µM.

With `O=C(OC(CN(C(=O)c1cccc(C(F)(F)F)c1)c1cccc(F)c1)C(F)(F)F)c1cccc(C(F)(F)F)c1` (centres unmarked) [Example 662, 2,2,2-trifluoro-1-[[(3-fluorophenyl)[3-(trifluoromethyl)benzoyl]amino]-methyl]ethyl 3-trifluoromethylbenzoate] as the molecule, how does the IC50 read?
Its IC50 is 50 µM.

With `O=C(c1cccc(C(F)(F)F)c1)N(CC(O)C(F)(F)F)c1cccc(F)c1` (centres unmarked) [Example 663, N-(3-fluorophenyl)-N-(3,3,3-trifluoro-2-hydroxypropyl)-3-(trifluoromethyl)benzamide] as the molecule, how does the IC50 read?
The IC50 was 100 µM.

`OC(CN(Cc1ccccc1)c1ccccc1)C(F)(F)F` (centres unmarked) [compound 2] was tested. Which IC50 did it give?
The IC50 was 100 µM.

`OC(CN(Cc1ccccc1)c1cccc(F)c1)C(F)(F)F` (centres unmarked) [compound 10] was tested. Which IC50 did it give?
Its IC50 is over 100 µM.

`OC(CN(Cc1cccc(F)c1)c1cccc(F)c1)C(F)(F)F` (centres unmarked) [compound 18] was tested. Which IC50 did it give?
The IC50 was 60 µM.

`Cc1ccc(N(Cc2cccc(C(F)(F)F)c2)CC(O)C(F)(F)F)cc1` (centres unmarked) [compound 20] was tested. Which IC50 did it give?
Its IC50 is over 100 µM.

How did the IC50 turn out when `Cc1ccccc1N(Cc1cccc(C(F)(F)F)c1)CC(O)C(F)(F)F` (centres unmarked) [compound 21] was run?
Its IC50 is over 100 µM.

`OC(CN(Cc1ccc(C(F)(F)F)cc1)c1ccc(F)c(F)c1)C(F)(F)F` (centres unmarked) [compound 22] was tested. Which IC50 did it give?
The IC50 was 50 µM.

`Cc1ccc(N(Cc2cccc(F)c2)CC(O)C(F)(F)F)cc1` (centres unmarked) [compound 32] was tested. Which IC50 did it give?
Its IC50 is over 100 µM.

`Cc1ccc(CN(CC(O)C(F)(F)F)c2cccc(Cl)c2)cc1` (centres unmarked) [compound 34] was tested. Which IC50 did it give?
The IC50 was 50 µM.

Which IC50 does the source give for `Cc1ccc(CN(CC(O)C(F)(F)F)c2cccc(C(F)(F)F)c2)cc1` (centres unmarked) [compound 45] here?
The IC50 was 100 µM.

`Cc1cccc(CN(CC(O)C(F)(F)F)c2cccc(F)c2)c1` (centres unmarked) [compound 49] was tested. Which IC50 did it give?
Its IC50 is over 100 µM.

Which IC50 does the source give for `OC(CN(Cc1cccc(Oc2ccc(Cl)cc2)c1)c1cccc(OC(F)(F)F)c1)C(F)(F)F` (centres unmarked) [compound 93] here?
The IC50 was 50 µM.

For `OC(CN(Cc1cccc(Oc2cc(Cl)cc(Cl)c2)c1)c1cccc(OC(F)(F)F)c1)C(F)(F)F` (centres unmarked) [compound 96], which IC50 is on record?
Its IC50 is 50 µM.

For `CCCCOc1ccc(CN(CC(O)C(F)(F)F)c2cccc(OC(F)(F)F)c2)cc1` (centres unmarked) [compound 120], which IC50 is on record?
The IC50 was 50 µM.

With `OC(CN(Cc1ccc(-c2ccccc2)cc1)c1ccc(C(F)(F)F)cc1)C(F)(F)F` (centres unmarked) [compound 144] as the molecule, how does the IC50 read?
Its IC50 is 100 µM.

Which IC50 does the source give for `CCCCOC(=O)c1ccc(N(Cc2cccc(OC(F)(F)F)c2)CC(O)C(F)(F)F)cc1` (centres unmarked) [compound 164] here?
The IC50 was over 100 µM.

For `OC(CN(Cc1ccccc1)c1cccc(Oc2ccccc2)c1)C(F)(F)F` (centres unmarked) [compound 217], which IC50 is on record?
Its IC50 is 32 µM.

`OC(CN(Cc1cccc(OC(F)(F)C(F)F)c1)c1cccc(Oc2cccc(C(F)(F)F)c2F)c1)C(F)(F)F` (centres unmarked) [compound 227] was tested. Which IC50 did it give?
The IC50 was 0.13 µM.

With `OC(CN(Cc1cccc(OC(F)(F)C(F)F)c1)c1cccc(Oc2cccc(F)c2)c1)C(F)(F)F` (centres unmarked) [compound 240] as the molecule, how does the IC50 read?
The IC50 was 0.27 µM.

For `Cc1cc(Oc2cccc(N(Cc3cccc(OC(F)(F)C(F)F)c3)CC(O)C(F)(F)F)c2)ccc1F` (centres unmarked) [compound 242], which IC50 is on record?
Its IC50 is 0.076 µM.

`OC(CN(Cc1cccc(OC(F)(F)C(F)F)c1)c1cccc(Oc2ccc(S)cc2)c1)C(F)(F)F` (centres unmarked) [compound 263] was tested. Which IC50 did it give?
The IC50 was over 50 µM.

With `COC(=O)c1cccc(CN(CC(O)C(F)(F)F)c2cccc(OC(F)(F)F)c2)c1` (centres unmarked) [compound 325] as the molecule, how does the IC50 read?
The IC50 was over 100 µM.

`OC(CN(Cc1ccc(-c2ccccc2)cc1)c1cccc(OC(F)(F)F)c1)C(F)(F)F` (centres unmarked) [compound 333] was tested. Which IC50 did it give?
Its IC50 is 100 µM.

How did the IC50 turn out when `COc1ccccc1CC(=O)N(CC(O)C(F)(F)F)c1cccc(OC(F)(F)F)c1` (centres unmarked) [compound 339] was run?
Its IC50 is over 100 µM.

With `COc1ccc(OC)c(C(=O)CN(CC(O)C(F)(F)F)c2cccc(OC(F)(F)F)c2)c1` (centres unmarked) [compound 340] as the molecule, how does the IC50 read?
Its IC50 is 100 µM.

For `O=C(c1c(F)c(F)c(F)c(F)c1F)N(CC(O)C(F)(F)F)c1cccc(OC(F)(F)F)c1` (centres unmarked) [compound 343], which IC50 is on record?
Its IC50 is 100 µM.

Which IC50 does the source give for `COc1cc(CN(CC(O)C(F)(F)F)c2cccc(OC(F)(F)F)c2)cc(OC)c1` (centres unmarked) [compound 350] here?
The IC50 was 50 µM.

Which IC50 does the source give for `O=C(C=Cc1ccccc1)N(CC(O)C(F)(F)F)c1cccc(OC(F)(F)F)c1` (centres unmarked) [compound 351] here?
Its IC50 is 50 µM.

For `O=C(Cc1ccccc1Oc1ccccc1)N(CC(O)C(F)(F)F)c1cccc(OC(F)(F)F)c1` (centres unmarked) [compound 361], which IC50 is on record?
The IC50 was over 100 µM.

With `OC(CN(Cc1cccc(OC(F)(F)C(F)F)c1)c1cccc(OCc2cccc(SC(F)(F)F)c2)c1)C(F)(F)F` (centres unmarked) [compound 410] as the molecule, how does the IC50 read?
The IC50 was 0.19 µM.

Which IC50 does the source give for `OC(CN(Cc1cccc(OC(F)(F)C(F)F)c1)c1cccc(OCc2cc(F)cc(C(F)(F)F)c2)c1)C(F)(F)F` (centres unmarked) [compound 411] here?
The IC50 was 0.25 µM.

Which IC50 does the source give for `CC(C)(C)c1ccc(COc2cccc(N(Cc3cccc(OC(F)(F)C(F)F)c3)CC(O)C(F)(F)F)c2)cc1` (centres unmarked) [compound 418] here?
The IC50 was 2.1 µM.

For `OC(CN(Cc1cccc(OC(F)(F)C(F)F)c1)c1cccc(OCc2ccccn2)c1)C(F)(F)F` (centres unmarked) [compound 432], which IC50 is on record?
The IC50 was 1.7 µM.

`OC(CN(Cc1cccc(OC(F)(F)C(F)F)c1)c1cccc(Oc2nccs2)c1)C(F)(F)F` (centres unmarked) [compound 448] was tested. Which IC50 did it give?
The IC50 was 4.3 µM.

With `O=C(c1cccc(N(Cc2cccc(OC(F)(F)C(F)F)c2)CC(O)C(F)(F)F)c1)N1CCOCC1` (centres unmarked) [compound 471] as the molecule, how does the IC50 read?
Its IC50 is 50 µM.

For `OC(CN(Cc1cccc(OC(F)(F)C(F)F)c1)c1cccc(OCCN2CCCC2)c1)C(F)(F)F` (centres unmarked) [compound 498], which IC50 is on record?
Its IC50 is over 50 µM.

With `OCCCOc1cccc(N(Cc2cccc(OC(F)(F)C(F)F)c2)CC(O)C(F)(F)F)c1` (centres unmarked) [compound 504] as the molecule, how does the IC50 read?
Its IC50 is 14 µM.

Which IC50 does the source give for `CC(C)(C)COc1cccc(N(Cc2cccc(OC(F)(F)C(F)F)c2)CC(O)C(F)(F)F)c1` (centres unmarked) [compound 506] here?
The IC50 was 0.97 µM.

Which IC50 does the source give for `OC(CN(Cc1cccc(OC(F)(F)C(F)F)c1)c1cccc(OC2CCCC2)c1)C(F)(F)F` (centres unmarked) [compound 509] here?
Its IC50 is 0.42 µM.

For `OC(CN(Cc1cccc(OC(F)(F)C(F)F)c1)c1cccc(Cc2ccccc2)c1)C(F)(F)F` (centres unmarked) [compound 515], which IC50 is on record?
The IC50 was 1.8 µM.

For `OC(CN(Cc1cccc(OC(F)(F)C(F)F)c1)c1cccc(-c2ccccc2)c1)C(F)(F)F` (centres unmarked) [compound 564], which IC50 is on record?
The IC50 was 2.5 µM.

With `Oc1cccc(CN(CC(O)C(F)(F)F)c2cccc(Oc3ccc(F)cc3)c2)c1` (centres unmarked) [compound 635] as the molecule, how does the IC50 read?
Its IC50 is 80 µM.

With `OC(CN(Cc1cccc(SC(F)(F)F)c1)c1cccc(Oc2ccc(F)cc2)c1)C(F)(F)F` (centres unmarked) [compound 636] as the molecule, how does the IC50 read?
The IC50 was 0.39 µM.

Which IC50 does the source give for `OC(CN(Cc1ccc(C(F)(F)F)cc1)c1cccc(Oc2ccc(F)cc2)c1)C(F)(F)F` (centres unmarked) [compound 640] here?
Its IC50 is 4.3 µM.

With `OC(CN(Cc1cccc(C(F)(F)F)c1)c1cc(Oc2ccc(F)cc2)cc(C(F)(F)F)c1)C(F)(F)F` (centres unmarked) [compound 641] as the molecule, how does the IC50 read?
The IC50 was 11 µM.

How did the IC50 turn out when `OC(CN(Cc1cccc(OC(F)(F)F)c1)c1cc(Oc2ccc(F)cc2)cc(C(F)(F)F)c1)C(F)(F)F` (centres unmarked) [compound 643] was run?
Its IC50 is 2.1 µM.

For `CCOc1cccc(CN(CC(O)C(F)(F)F)c2cccc(Oc3ccc(F)cc3)c2)c1` (centres unmarked) [compound 646], which IC50 is on record?
Its IC50 is 0.77 µM.

`CCCOc1cccc(CN(CC(O)C(F)(F)F)c2cccc(Oc3ccc(F)cc3)c2)c1` (centres unmarked) [compound 648] was tested. Which IC50 did it give?
Its IC50 is 0.83 µM.
